The results in this text go back to ChEMBL document CHEMBL1155994, “NO-NSAIDs: Gastric-sparing nitric oxide-releasable prodrugs of non-steroidal anti-inflammatory drugs” (Bioorg Med Chem Lett, 2009).

The subject of series [1] is Rattus norvegicus. Kind of series: Antiinflammatory activity against carrageenan-induced paw edema in rat at dose equimolar to 150 mg/kg aspirin, po administered 1 hr before carrageenan challenge measured after 4 hrs by plethysmometer. Type of series: functional. To be noted: at 150 mg/kg. For orientation: The carrageenan paw model is a standard test of acute inflammation.

The subject of series [2] is Rattus norvegicus. Kind of series: Antiinflammatory activity against carrageenan-induced paw edema in rat at dose equimolar to 150 mg/kg aspirin, po administered 1 hr before carrageenan challenge measured after 6 hrs by plethysmometer. Type of series: functional.
Series [3] concerns Rattus norvegicus. The experiment in a line: Gastrointestinal toxicity in rat assessed as ulcerogenic index at dose equimolar to 100 mg/kg of aspirin, po after 3 hrs. It is filed as organism-based. Set-up: dose 100 mg/kg, route oral. To be noted: in vivo.
The subject of series [4] is Rattus norvegicus. Kind of series: Effect on nitric oxide release in rat assessed as plasma nitrate/nitrite concentration at dose equimolar to 10 mg/kg of diclofenac, po by Griess method. On the set-up: dose 10 mg/kg. It is filed as functional, organism-based.
Series [5] in a line: AUC in rat at 10 mg/kg, po. It is filed as ADME, organism-based. Set-up: dose 10 mg/kg, route oral. To be noted: plasma.
The test system of series [6] is Rattus norvegicus. The experiment in a line: Antiinflammatory activity against carrageenan-induced paw edema in rat at 10 mg/kg, po administered 1 hr before carrageenan challenge measured after 4 hrs by plethysmometer. Type of series: functional.
Series [7] deals with Rattus norvegicus. Kind of series: Antiinflammatory activity against carrageenan-induced paw edema in rat at 10 mg/kg, po administered 1 hr before carrageenan challenge measured after 6 hrs by plethysmometer. It is filed as functional.
For series [8], the system named is Rattus norvegicus. Kind of series: Gastrointestinal toxicity in rat assessed as ulcerogenic index at 100 mg/kg, po after 3 hrs. Type of series: organism-based. On the set-up: dose 100 mg/kg, route oral. To be noted: in vivo.
The test system of series [9] is Rattus norvegicus. The experiment in a line: Antiinflammatory activity against carrageenan-induced paw edema in rat at dose equimolar to 10 mg/kg aspirin, po administered 1 hr before carrageenan challenge measured after 6 hrs by plethysmometer. It is filed as functional.
Series [10] has as its system Rattus norvegicus. The experiment in a line: Gastrointestinal toxicity in rat assessed as ulcerogenic index at dose equimolar to 100 mg/kg of diclofenac, po after 5 hrs. Type of series: organism-based. On the set-up: dose 100 mg/kg, route oral. As to conditions: in vivo.
Series [11] deals with Rattus norvegicus. Kind of series: AUC in rat at po dose of equimolar to aspirin. Type of series: ADME, organism-based, Plasma. To be noted: in vivo.
Series [12] is described as follows: AUC in rat at 150 mg/kg, po. Type of series: ADME, organism-based. Set-up: dose 150 mg/kg, route oral. As to conditions: plasma.
Series [13] has as its system Rattus norvegicus. Kind of series: Antiinflammatory activity against carrageenan-induced paw edema in rat at 150 mg/kg, po administered 1 hr before carrageenan challenge measured after 4 hrs by plethysmometer. It is filed as functional.
The test system of series [14] is Rattus norvegicus. The experiment in a line: Antiinflammatory activity against carrageenan-induced paw edema in rat at 150 mg/kg, po administered 1 hr before carrageenan challenge measured after 6 hrs by plethysmometer. Type of series: functional.
The test system of series [15] is Rattus norvegicus. Kind of series: Gastrointestinal toxicity in rat assessed as ulcerogenic index at 100 mg/kg, po after 5 hrs. It is filed as organism-based. On the set-up: dose 100 mg/kg, route oral. To be noted: in vivo.
Series [16] has as its system Rattus norvegicus. The experiment in a line: AUC in rat at 35 mg/kg, po. It is filed as ADME, organism-based, Plasma. Set-up: dose 35 mg/kg, route oral. To be noted: in vivo.

Activity calls are given as the source filed them. The calls are words filed in the database; no cut-off is given here.

As usually defined, the inhibition in vivo is the drop in the measured response relative to a control, in per cent. High values mean a response far below the control, low ones a response near the control.

As to `CC(=O)Oc1ccccc1C(=O)OCC(=O)OCCSSCCO[N+](=O)[O-]`, in the series with Rattus norvegicus [1], the inhibition result is “inactive”. Moreover, the outcome with Rattus norvegicus [2] was inactive.

Take `O=C(Cc1ccccc1Nc1c(Cl)cccc1Cl)OCCSSCCO[N+](=O)[O-]`: in the series on Rattus norvegicus [3], the UI amounted to 0 mm2. The result in the series on Rattus norvegicus [4] was Active.

As for `O=C(O)Cc1ccccc1Nc1c(Cl)cccc1Cl` [DICLOFENAC], the AUC in series [5] amounted to 65 µg·h/mL. The Activity with Rattus norvegicus [6] was determined as 55%. Further, testing at 10 mg/kg with Rattus norvegicus [7] gave an inhibition in vivo of 21%. For the same molecule, the UI in the series with Rattus norvegicus [8] came out at 108 mm2.

Regarding `O=C(COC(=O)Cc1ccccc1Nc1c(Cl)cccc1Cl)OCCSSCCO[N+](=O)[O-]`, the outcome with Rattus norvegicus [9] was inactive.

For `CC(=O)Oc1ccccc1C(=O)OCCSSCCO[N+](=O)[O-]`, the UI in the series on Rattus norvegicus [10] was 0 mm2. Moreover, the AUC in the series with Rattus norvegicus [11] worked out at 749 ug/hr.ml.

Regarding `CC(=O)Oc1ccccc1C(=O)O` [ASPIRIN], the AUC in series [12] worked out at 4050 µg·h/mL; in the series with Rattus norvegicus [16], 909 ug/hr.ml. Moreover, the figures for the inhibition in vivo at 150 mg/kg in the series on Rattus norvegicus [13] and in the series with Rattus norvegicus [14] were 30% and 31%, respectively. Also, the UI in the series with Rattus norvegicus [15] was 99 mm2.
